Assays:
VEGFR2 = VEGFR2 (Homo sapiens, UniProt P35968); test: HTRF method for testing the inhibitory activity of compounds against VEGFR2; assay type: biochemical; details: IC50 by nonlinear regression, read-out: VEGFR2 kinase activity
Experimental: (b) In Vitro Screening Experiment—HTRF Method for Testing the Inhibitory Activity of Compounds Against VEGFR2 Experimental Procedure: 1. […] The test compound (5 mM stock solution) was diluted 5 folds to 1 mM with 100% dimethyl sulfoxide; the compound was diluted into 10 concentrations at an equal ratio of 1:3 in a 384-well dilution plate. 3. […] 6. […] The reaction solution was centrifuged at 1000 g for 30 s, and then sealed, and incubated at room temperature for 40 min. 8. […] 10. […] 11. […] 12. IC50 was calculated with software GraphPad 6.0 by fitting inhibition values and logarithms of compound concentrations to a nonlinear regression (dose response−variable slope).

RET = RET (Homo sapiens, UniProt P07949); test: HTRF method for testing the inhibitory activity of compounds against RET; assay type: biochemical; details: IC50 by nonlinear regression, read-out: RET kinase activity
Experimental: (a) In Vitro Screening Experiment-HTRF Method for Testing the Inhibitory Activity of Compounds Against RET Experimental Procedure: 1. […] 2. The test compound (5 mM stock solution) was diluted 5 folds to 1 mM with 100% dimethyl sulfoxide; the compound was diluted into 10 concentrations at an equal ratio of 1:3 in a 384-well dilution plate. 3. 0.2 μL of the serially diluted compound was added to a 384-well plate using an Echo 550 pipetting system, 2 replicate wells for each concentration, and the final concentration of dimethyl sulfoxide was 0.5% (v/v). […] 6. […] The reaction solution was centrifuged at 1000 g for 30 s, and then sealed, and incubated at room temperature for 30 min. 8. […] 10. […] 11. […] IC50 was calculated with software GraphPad 6.0 by fitting inhibition values and logarithms of compound concentrations to a nonlinear regression (dose response−variable slope).

Ba/F3-KIF5B-RET cell = molecular target: T1, Ba/F3-KIF5B-RET cell (Homo sapiens, UniProt P07949); test: CellTiter-Glo luminescence assay for inhibitory activity against Ba/F3-KIF5B-RET cell; assay type: cell-based; details: Ba/F3-KIF5B-RET cells, 72 h
T1 construct: fused on or other part: P33176 (Kinesin-1 heavy chain)
Text: (c) In Vitro Screening Experiment—CellTiter-Glo Luminescence Assay for Testing the Inhibitory Activity of Compounds Against Ba/F3-KIF5B-RET Cell Experimental Procedure: 1. The mammalian cell expression vector containing human KIF5B-RET cDNA was introduced into Ba/F3 cells using the Neon® transfection system method, and the surviving clones screened by puromycin were subjected to cell growth inhibitory function experiments and Western blotting to verify cell lines with stable and high expression of RET. 2. […] 3. The test compound (5 mM stock) was diluted 2.5 folds to 2 mM with 100% dimethyl sulfoxide; and the compound was diluted into 10 concentrations at an equal ratio of 1:3 in a 384-well dilution plate. 4. […] 6. […] 7. By fitting the data with XLFit 5.0 based on the parameters formula, the IC50 value was calculated as: Y=Bottom+(Top−Bottom)/(1+10^((Log IC50−X)*HillSlope)).

VEGFR2, sequence (P35968 20-1356, species assumed): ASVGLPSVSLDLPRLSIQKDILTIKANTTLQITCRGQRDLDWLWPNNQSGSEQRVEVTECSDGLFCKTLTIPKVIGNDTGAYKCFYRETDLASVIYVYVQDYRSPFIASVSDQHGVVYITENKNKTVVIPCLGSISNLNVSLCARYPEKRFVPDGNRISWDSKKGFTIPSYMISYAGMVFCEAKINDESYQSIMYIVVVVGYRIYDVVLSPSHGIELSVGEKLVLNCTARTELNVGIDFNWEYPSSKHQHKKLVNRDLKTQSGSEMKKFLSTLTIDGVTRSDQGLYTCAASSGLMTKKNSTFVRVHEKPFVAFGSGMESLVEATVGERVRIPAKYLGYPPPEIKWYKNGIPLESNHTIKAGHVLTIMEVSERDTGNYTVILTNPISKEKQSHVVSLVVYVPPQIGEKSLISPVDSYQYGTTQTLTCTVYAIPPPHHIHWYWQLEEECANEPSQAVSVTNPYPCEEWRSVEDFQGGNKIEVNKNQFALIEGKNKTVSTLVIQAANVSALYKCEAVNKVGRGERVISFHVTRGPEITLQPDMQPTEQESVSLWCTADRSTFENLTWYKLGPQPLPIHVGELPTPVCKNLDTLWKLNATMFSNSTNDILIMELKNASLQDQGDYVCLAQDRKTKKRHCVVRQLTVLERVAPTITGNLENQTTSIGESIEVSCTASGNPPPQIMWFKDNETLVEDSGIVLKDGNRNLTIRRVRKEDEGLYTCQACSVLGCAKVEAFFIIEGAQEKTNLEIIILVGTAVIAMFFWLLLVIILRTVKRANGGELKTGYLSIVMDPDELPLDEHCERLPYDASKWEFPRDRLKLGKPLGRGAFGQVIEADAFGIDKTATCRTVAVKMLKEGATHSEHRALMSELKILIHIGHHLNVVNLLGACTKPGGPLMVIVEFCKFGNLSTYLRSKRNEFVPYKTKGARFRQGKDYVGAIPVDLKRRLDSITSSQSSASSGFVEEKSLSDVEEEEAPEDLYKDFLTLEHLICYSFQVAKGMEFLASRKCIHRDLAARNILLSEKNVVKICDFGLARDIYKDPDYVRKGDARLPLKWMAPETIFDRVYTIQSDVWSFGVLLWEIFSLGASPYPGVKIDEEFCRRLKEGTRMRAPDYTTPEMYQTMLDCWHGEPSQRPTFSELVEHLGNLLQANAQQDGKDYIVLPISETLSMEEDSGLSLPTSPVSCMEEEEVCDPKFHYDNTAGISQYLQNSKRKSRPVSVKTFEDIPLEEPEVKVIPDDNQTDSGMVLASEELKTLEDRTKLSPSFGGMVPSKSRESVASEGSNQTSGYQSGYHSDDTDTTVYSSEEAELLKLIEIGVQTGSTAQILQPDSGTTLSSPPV
RET, sequence (P07949 29-1114): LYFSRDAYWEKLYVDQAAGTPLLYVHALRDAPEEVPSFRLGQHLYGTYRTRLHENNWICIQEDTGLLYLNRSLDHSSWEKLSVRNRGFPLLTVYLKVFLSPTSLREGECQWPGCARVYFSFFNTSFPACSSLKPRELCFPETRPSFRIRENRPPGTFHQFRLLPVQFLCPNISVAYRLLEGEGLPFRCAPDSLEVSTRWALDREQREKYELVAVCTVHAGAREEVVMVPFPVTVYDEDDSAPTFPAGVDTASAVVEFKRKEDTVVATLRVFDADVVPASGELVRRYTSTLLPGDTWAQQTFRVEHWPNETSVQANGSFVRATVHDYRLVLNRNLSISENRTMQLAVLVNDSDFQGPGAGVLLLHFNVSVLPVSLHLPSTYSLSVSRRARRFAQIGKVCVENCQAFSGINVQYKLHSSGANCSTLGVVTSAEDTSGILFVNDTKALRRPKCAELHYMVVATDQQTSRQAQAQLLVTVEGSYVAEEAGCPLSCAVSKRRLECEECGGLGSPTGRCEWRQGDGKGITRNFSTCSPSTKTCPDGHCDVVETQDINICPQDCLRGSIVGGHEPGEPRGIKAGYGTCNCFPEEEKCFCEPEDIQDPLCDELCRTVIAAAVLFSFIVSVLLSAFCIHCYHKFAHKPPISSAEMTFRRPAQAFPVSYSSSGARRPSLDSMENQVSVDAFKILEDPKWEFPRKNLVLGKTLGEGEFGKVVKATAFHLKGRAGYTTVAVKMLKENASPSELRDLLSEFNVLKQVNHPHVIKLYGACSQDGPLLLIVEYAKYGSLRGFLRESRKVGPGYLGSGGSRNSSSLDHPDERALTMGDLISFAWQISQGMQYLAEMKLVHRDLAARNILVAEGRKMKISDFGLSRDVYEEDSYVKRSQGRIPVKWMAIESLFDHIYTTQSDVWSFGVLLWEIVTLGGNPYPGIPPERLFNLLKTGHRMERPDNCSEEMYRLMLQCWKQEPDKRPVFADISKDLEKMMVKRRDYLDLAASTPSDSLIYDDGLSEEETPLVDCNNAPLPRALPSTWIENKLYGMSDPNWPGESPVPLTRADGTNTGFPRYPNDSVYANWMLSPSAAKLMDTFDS
T1 sequence (P07949 whole entry, stated change not applied, the tested form may be a part): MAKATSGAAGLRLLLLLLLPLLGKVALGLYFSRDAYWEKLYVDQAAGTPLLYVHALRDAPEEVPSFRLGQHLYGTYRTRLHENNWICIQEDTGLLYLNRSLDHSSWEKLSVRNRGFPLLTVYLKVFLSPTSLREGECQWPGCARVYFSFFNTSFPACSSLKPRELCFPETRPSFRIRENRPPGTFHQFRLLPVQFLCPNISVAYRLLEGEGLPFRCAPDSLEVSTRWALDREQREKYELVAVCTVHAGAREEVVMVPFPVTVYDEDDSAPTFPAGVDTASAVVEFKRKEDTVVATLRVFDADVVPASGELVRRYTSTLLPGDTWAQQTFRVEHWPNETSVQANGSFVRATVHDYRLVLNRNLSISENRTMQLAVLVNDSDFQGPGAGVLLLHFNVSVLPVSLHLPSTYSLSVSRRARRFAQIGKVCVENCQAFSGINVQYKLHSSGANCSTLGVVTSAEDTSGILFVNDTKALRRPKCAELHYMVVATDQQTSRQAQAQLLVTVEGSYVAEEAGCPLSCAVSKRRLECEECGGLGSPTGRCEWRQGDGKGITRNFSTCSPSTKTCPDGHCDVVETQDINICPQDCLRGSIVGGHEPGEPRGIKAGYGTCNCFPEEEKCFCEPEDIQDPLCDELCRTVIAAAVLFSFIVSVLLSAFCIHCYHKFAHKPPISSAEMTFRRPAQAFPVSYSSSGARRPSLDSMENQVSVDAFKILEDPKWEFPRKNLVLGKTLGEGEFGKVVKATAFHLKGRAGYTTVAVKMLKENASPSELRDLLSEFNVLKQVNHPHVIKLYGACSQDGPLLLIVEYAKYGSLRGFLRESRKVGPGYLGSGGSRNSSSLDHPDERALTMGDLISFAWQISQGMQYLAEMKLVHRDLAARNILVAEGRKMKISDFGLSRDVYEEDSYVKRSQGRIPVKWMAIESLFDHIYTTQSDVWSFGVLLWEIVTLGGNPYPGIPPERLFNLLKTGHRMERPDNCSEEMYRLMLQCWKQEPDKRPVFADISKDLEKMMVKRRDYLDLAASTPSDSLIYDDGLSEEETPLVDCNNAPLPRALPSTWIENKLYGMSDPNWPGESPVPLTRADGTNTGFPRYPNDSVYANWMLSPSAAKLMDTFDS

Structure (SMILES)	IC50 (VEGFR2)	IC50 (RET)	GI50 (Ba/F3-KIF5B-RET cell)
C[C@@H](c1ccc(-n2cc(F)cn2)nc1)N(C)c1ccc(-c2cc(OCC3CC3)cn3ncc(C#N)c23)cn1 [Compound 28, (S)-6-(cyclopropylmethoxy)-4-(6-((1-(6-(4-fluoro-1H-pyrazol-1-yl)pyridin-3-yl)ethyl)(methyl)amino)pyridin-3-yl)pyrazolo[1,5-a]pyridine-3-carbonitrile]	1190 nM	2.25 nM	177 nM
C[C@@H](c1ccc(-n2cc(F)cn2)nc1)N(C)c1ccc(-c2cc(-c3cnn(C)c3)cn3ncc(C#N)c23)cn1 [Compound 29, (S)-6-(1-methyl-1H-pyrazol-4-yl)-4-(6-((1-(6-(4-fluoro-1H-pyrazol-1-yl)pyridine-3-yl)ethyl)(methyl)amino)pyridin-3-yl)pyrazolo[1,5-a]pyridine-3-carbonitrile]	3.29 nM	0.36 nM	0.75 nM
CCOc1cc(-c2ccc(N(C)[C@@H](C)c3ccc(-n4cc(F)cn4)nc3)nc2)c2c(C#N)cnn2c1 [Compound 30, (S)-4-(6-((1-(6-(4-fluoro-1H-pyrazol-1-yl)pyridin-3-yl)ethyl)(methyl)amino)pyridine-3-yl)-6-ethoxypyrazolo[1,5-a]pyridine-3-carbonitrile]	175 nM	0.47 nM	15.1 nM
C[C@@H](c1ccc(-n2cc(F)cn2)nc1)N(C)c1ccc(-c2cc(OCC#N)cn3ncc(C#N)c23)cn1 [Compound 32, (S)-4-(6-((1-(6-(4-fluoro-1H-pyrazol-1-yl)pyridin-3-yl)ethyl)(methyl)amino)pyridine-3-yl)-6-cyanomethoxypyrazolo[1,5-a]pyridine-3-carbonitrile]	> 5000 nM	4.23 nM	224 nM
CC(C)COc1cc(-c2ccc(N(C)[C@@H](C)c3ccc(-n4cc(F)cn4)nc3)nc2)c2c(C#N)cnn2c1 [Compound 33, (S)-4-(6-((1-(6-(4-fluoro-1H-pyrazol-1-yl)pyridin-3-yl)ethyl)(methyl)amino)pyridine-3-yl)-6-isobutoxypyrazolo[1,5-a]pyridine-3-carbonitrile]	> 5000 nM	3.04 nM	413 nM
C[C@@H](c1ccc(-n2cc(F)cn2)nc1)N(C)c1ccc(-c2cc(OCC(F)F)cn3ncc(C#N)c23)cn1 [Compound 34, (S)-4-(6-((1-(6-(4-fluoro-1H-pyrazol-1-yl)pyridin-3-yl)ethyl)(methyl)amino)pyridine-3-yl)-6-(2,2-difluoroethoxy)pyrazolo[1,5-a]pyridine-3-carbonitrile]	128 nM	1.55 nM	119 nM
C[C@@H](c1ccc(-n2cc(F)cn2)nc1)N(C)c1ccc(-c2cc(OCC(F)(F)F)cn3ncc(C#N)c23)cn1 [Compound 35, (S)-4-(6-((1-(6-(4-fluoro-1H-pyrazol-1-yl)pyridin-3-yl)ethyl)(methyl)amino)pyridine-3-yl)-6-(2,2,2-trifluoroethoxy)pyrazolo[1,5-a]pyridine-3-carbonitrile]	819 nM	6.94 nM	396 nM
CC(O)COc1cc(-c2ccc(N(C)[C@@H](C)c3ccc(-n4cc(F)cn4)nc3)nc2)c2c(C#N)cnn2c1 (stereo partly drawn) [Compound 36, (S)-4-(6-((1-(6-(4-fluoro-1H-pyrazol-1-yl)pyridin-3-yl)ethyl)(methyl)amino)pyridine-3-yl)-6-(2-hydroxypropoxy)pyrazolo[1,5-a]pyridine-3-carbonitrile]	47 nM	2.76 nM	19.9 nM
CCn1cc(-c2cc(-c3ccc(N(C)[C@@H](C)c4ccc(-n5cc(F)cn5)nc4)nc3)c3c(C#N)cnn3c2)cn1 [Compound 38, (S)-6-(1-ethyl-1H-pyrazol-4-yl)-4-(6-((1-(6-(4-fluoro-1H-pyrazol-1-yl)pyridine-3-yl)ethyl)(methyl)amino)pyridin-3-yl)pyrazolo[1,5-a]pyridine-3-carbonitrile]	7.39 nM	0.56 nM	5.14 nM
CCCOc1cc(-c2ccc(N(C)[C@@H](C)c3ccc(-n4cc(F)cn4)nc3)nc2)c2c(C#N)cnn2c1 [Compound 39, (S)-4-(6-((1-(6-(4-fluoro-1H-pyrazol-1-yl)pyridin-3-yl)ethyl)(methyl)amino)pyridine-3-yl)-6-propoxypyrazolo[1,5-a]pyridine-3-carbonitrile]	> 5000 nM	1.93 nM	182 nM
COc1ccc([C@H](C)N(C)c2ccc(-c3cc(OCC(C)(C)O)cn4ncc(C#N)c34)cn2)cn1 [Compound 43, (S)-6-(2-hydroxy-2-methylpropoxy)-4-(6-((1-(6-methoxypyridin-3-yl)ethyl)(methyl)amino)pyridin-3-yl)pyrazolo[1,5-a]pyridine-3-carbonitrile]	245 nM	2.05 nM	35 nM
CC[C@@H](c1ccc(-n2cc(F)cn2)nc1)N(C)c1ccc(-c2cc(OCC(C)(C)O)cn3ncc(C#N)c23)cn1 [Compound 44, (S)-4-(6-((1-(6-(4-fluoro-1H-pyrazolyl)pyridin-3-yl)propyl)(methyl)amino)pyridin-3-yl)-6-(2-hydroxy-2-methylpropoxy)pyrazo[1,5-a]pyridine-3-carbonitrile]	18 nM	0.26 nM	18.6 nM
C[C@@H](c1ccc(-n2cc(F)cn2)nc1)N(C)c1ccc(-c2cc(OCC3(O)CC3)cn3ncc(C#N)c23)cn1 [Compound 46, (S)-4-(6-((1-(6-(4-fluoro-1H-pyrazolyl)pyridin-3-yl)ethyl)(methyl)amino)pyridin-3-yl)-6-((1-hydroxycyclopropyl)methoxy)pyrazolo[1,5-a]pyridine-3-carbonitrile]	80.5 nM	0.73 nM	13.6 nM
C[C@@H](c1ccc(-n2cc(F)cn2)nc1)N(C)c1ccc(-c2cc(N3CCCCC3)cn3ncc(C#N)c23)cn1 [Compound 47, (S)-4-(6-((1-(6-(4-fluoro-1H-pyrazol-1-yl)pyridin-3-yl)ethyl)(methyl)amino)pyridine-3-yl)-6-(piperidin-1-yl)pyrazolo[1,5-a]pyridine-3-carbonitrile]	> 5000 nM	5.45 nM	236 nM
C[C@@H](c1ccc(-n2cc(F)cn2)nc1)N(C)c1ccc(-c2cc(N3CCC(F)(F)CC3)cn3ncc(C#N)c23)cn1 [Compound 48]	≥ 5440 nM	4.32 nM	142 nM
C[C@@H](c1ccc(-n2cc(F)cn2)nc1)N(C)c1ccc(-c2cc(NCC3CC3)cn3ncc(C#N)c23)cn1 [Compound 49, (S)-6-((cyclopropylmethyl)amino)-4-(6-((1-(6-(4-fluoro-1H-pyrazol-1-yl)pyridin-3-yl)ethyl)(methyl)amino)pyridin-3-yl)pyrazolo[1,5-a]pyridine-3-carbonitrile]	> 5000 nM	1.25 nM	30.7 nM
CC(C)Nc1cc(-c2ccc(N(C)[C@@H](C)c3ccc(-n4cc(F)cn4)nc3)nc2)c2c(C#N)cnn2c1 [Compound 50, (S)-4-(6-((1-(6-(4-fluoro-1H-pyrazol-1-yl)pyridin-3-yl)ethyl)(methyl)amino)pyridine-3-yl)-6-(isopropylamino)pyrazolo[1,5-a]pyridine-3-carbonitrile]	156 nM	1.67 nM	104 nM
